pIC50: −log10 of the molar value.
molecular target: T1, Recombinant human renin (Homo sapiens, UniProt P00797); assay: Inhibitory activity against human renin (fluorogenic peptide substrate); assay type: biochemical; conditions: 37° C. for 1 hour, read-out: IC50
T1 sequence (P00797 67-406): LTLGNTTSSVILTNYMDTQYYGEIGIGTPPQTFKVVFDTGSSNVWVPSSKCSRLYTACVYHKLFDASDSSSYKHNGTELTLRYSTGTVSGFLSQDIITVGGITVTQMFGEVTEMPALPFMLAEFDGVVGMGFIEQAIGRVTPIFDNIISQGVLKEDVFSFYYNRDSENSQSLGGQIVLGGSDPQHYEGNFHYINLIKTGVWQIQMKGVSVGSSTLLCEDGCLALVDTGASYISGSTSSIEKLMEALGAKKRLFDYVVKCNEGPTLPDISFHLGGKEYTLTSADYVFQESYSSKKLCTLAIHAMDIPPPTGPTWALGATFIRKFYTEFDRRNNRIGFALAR
Protocol: Inhibitory Activity Against Human Renin
A substrate of synthetic peptide (Nma-KHPFH LVIHK(Dnp)-NH2) and test compound were mixed, and fluorescence intensity was assayed using a fluorophotometer before starting an enzymatic reaction (exciting wavelength: 340 nm, measuring wavelength: 460 nm). Recombinant human renin was added and the mixture was incubated at 37° C. for 1 hour, and the fluorescence intensity was measured after the reaction using a fluorophotometer (exciting wavelength: 340 nm, measuring wavelength: 460 nm).

| pIC50 | Structure (SMILES) |
| --- | --- |
| 9.52 | COC[C@@H]1CNC[C@H](C(=O)N(C2CC2)[C@H](C)c2nn(CCCNC(=O)OC)c3nc(C)ccc23)O1 [Example 1, methyl (3-{3-[(1R)-1-(cyclopropyl{[(2R,6S)-6-(methoxymethyl)morpholin-2-yl]carbonyl}amino)ethyl]-6-methyl-1H-pyrazolo[3,4-b]pyridin-1-yl}propyl)carbamate] |
| 9.52 | COC[C@@H]1CNC[C@H](C(=O)N(C2CC2)[C@H](C)c2cc(CCCNC(=O)OC)nc(OC)c2)O1 [Example 2, methyl (3-{4-[(1R)-1-(cyclopropyl{[(2R,6S)-6-(methoxymethyl)morpholin-2-yl]carbonyl}amino)ethyl]-6-methoxypyridin-2-yl}propyl)carbamate] |
| 9.22 | COC(=O)NCCCc1cc([C@@H](C)N(C(=O)[C@H]2CNC[C@@H](C(=O)OC)O2)C2CC2)sc1-c1ccccc1 [Example 3, methyl (2S,6R)-6-{cyclopropyl[(1R)-1-(4-{3-[(methoxycarbonyl)amino]propyl}-5-phenylthiophen-2-yl)ethyl]carbamoyl}morpholine-2-carboxylate] |
| 9.15 | COC(=O)NCCCn1cc([C@@H](C)N(C(=O)[C@H]2CNCCO2)C2CC2)nc1OC(C)C [Example 5, methyl (3-{4-[(1R)-1-{cyclopropyl[(2R)-morpholin-2-ylcarbonyl]amino}ethyl]-2-(propan-2-yloxy)-1H-imidazol-1-yl}propyl)carbamate] |
| 9.52 | COC(=O)NCCCn1cc([C@@H](C)N(C(=O)[C@H]2CNCCO2)C2CC2)nc1C1CCCCC1 [Example 6, methyl (3-{2-cyclohexyl-4-[(1R)-1-{cyclopropyl[(2R)-morpholin-2-ylcarbonyl]amino}ethyl]-1H-imidazol-1-yl}propyl)carbamate] |
| 8.36 | CC(=O)NCCn1nc(C)c2ccc([C@@H](C)N(C(=O)[C@H]3CNCCO3)C3CC3)cc21 [Example 8] |
| 8.14 | COC(=O)NCCn1nc(C)c2ccc([C@@H](C)N(C(=O)[C@H]3CNCCO3)C3CC3)cc21 [Example 9] |
| 8.59 | COCCCc1nn(C)c2ccc([C@@H](C)N(C(=O)[C@H]3CNCCO3)C3CC3)cc12 [Example 15] |
| 8.62 | COCCCOc1cc([C@@H](C)N(C(=O)[C@H]2CNCCO2)C2CC2)cc2c1OCCC2 [Example 19] |
| 9.30 | COCCCCn1cc([C@@H](C)N(C(=O)[C@H]2CNCCO2)C2CC2)c2ncc(C)cc21 [Example 20] |
| 8.62 | COCCCn1ncc2c(F)cc([C@@H](C)N(C(=O)[C@H]3CNCCO3)C3CC3)cc21 [Example 23] |
| 8.20 | COCCCCc1cc(C(C)N(C(=O)[C@H]2CNCCO2)C2CC2)cnc1OC (some centres unmarked) [Example 25] |
| 8.47 | COCCCc1nn(C)c2ccc([C@@H](C)N(C(=O)[C@H]3CNCCO3)C3CC3)cc12 [Example 26] |
| 8.08 | COc1ccc([C@@H](C)N(C(=O)[C@H]2CNCCO2)C2CC2)cc1CCCNC(C)=O [Example 27] |
| 8.15 | CNC(=O)NCCCn1nc([C@@H](C)N(C(=O)[C@H]2CNCCO2)C2CC2)c2ccc(C)cc21 [Example 28] |
| 9.22 | COC(=O)NCCCn1nc([C@@H](C)N(C(=O)[C@H]2CNCCO2)C2CC2)c2ccc(C)cc21 [Example 29] |
| 8.48 | COCCCOc1nc([C@@H](C)N(C(=O)[C@H]2CNCCO2)C2CC2)cc2ccccc12 [Example 32] |
| 8.28 | COCCCc1cn(C)c2cnc([C@@H](C)N(C(=O)[C@H]3CNCCO3)C3CC3)cc12 [Example 33] |
| 9.40 | CCc1cnc2c([C@@H](C)N(C(=O)[C@H]3CNCCO3)C3CC3)cn(CCCCOC)c2c1 [Example 35] |
| 9.30 | COCCCCn1cc([C@@H](C)N(C(=O)[C@H]2CNCCO2)C2CC2)c2ncc(C3CC3)cc21 [Example 36] |
| 8.70 | COCCCc1cn(C)c2ccc([C@@H](C)N(C(=O)[C@H]3CNCCO3)C3CC3)nc12 [Example 39] |

| pIC50 | Structure (SMILES) |
| --- | --- |
| 9.15 | COCCCCn1cc([C@@H](C)N(C(=O)[C@H]2CNCCO2)C2CC2)c2ncc(OC)cc21 [Example 40] |
| 9.15 | COC(=O)NCCCn1nc([C@@H](C)N(C(=O)[C@H]2CNCCO2)C2CC2)c2ccc(OC)cc21 [Example 41] |
| 9.30 | COC(=O)NCCCn1cc([C@@H](C)N(C(=O)[C@H]2CNCCO2)C2CC2)c2nccc(C)c21 [Example 42] |
| 9.22 | COC(=O)NCCCn1cc([C@@H](C)N(C(=O)[C@H]2CNCCO2)C2CC2)c2ncccc21 [Example 43] |
| 8.52 | COCCCn1nc(C)c2ccc([C@@H](C)N(C(=O)[C@H]3CNCCO3)C3CC3)nc21 [Example 44] |
| 8.47 | COCCCN1C(=O)C(C)(C)c2ccc([C@@H](C)N(C(=O)[C@H]3CNCCO3)C3CC3)cc21 [Example 45] |
| 8.82 | COCCCN1CC(C)(C)c2ccc([C@@H](C)N(C(=O)[C@H]3CNCCO3)C3CC3)cc21 [Example 46] |
| 8.32 | COCCCc1cn(C)c2ncc([C@@H](C)N(C(=O)[C@H]3CNCCO3)C3CC3)cc12 [Example 47] |
| 8.82 | COCCCc1cn(C)c2ccc([C@@H](C)N(C(=O)[C@H]3CNCCO3)C3CC3)cc12 [Example 48] |
| 9.00 | COC(=O)NCCCn1cc([C@H](C)N(C(=O)[C@H]2CNCCO2)C2CC2)c2ccc(C)nc21 [Example 50] |
| 8.06 | COCCCCn1cc([C@H](C)N(C(=O)[C@H]2CNCCO2)C2CC2)c2nccc(OC)c21 [Example 51] |
| 8.74 | COCCCCn1cc([C@@H](C)N(C(=O)[C@H]2CNCCO2)C2CC2)c2nccc(OC)c21 [Example 52] |
| 8.38 | COCCCCn1cc([C@@H](C)N(C(=O)[C@H]2CNCCO2)C2CC2)c2nc(C)ccc21 [Example 56] |
| 8.80 | CCOC(=O)NCCCn1nc([C@@H](C)N(C(=O)[C@H]2CNCCO2)C2CC2)c2ccc(C)nc21 [Example 58] |
| 9.05 | COC(=O)NCCCn1nc([C@@H](C)N(C(=O)[C@H]2CNCCO2)C2CC2)c2ccc(C3CC3)cc21 [Example 59] |
| 8.40 | COC(=O)NCCCc1cccc([C@@H](C)N(C(=O)[C@H]2CNCCO2)C2CC2)c1 [Example 61] |
| 9.22 | COC(=O)NCCCn1nc([C@@H](C)N(C(=O)[C@H]2CNCCO2)C2CC2)c2cccc(C)c21 [Example 62] |
| 8.89 | COC(=O)NCCCn1nc([C@@H](C)N(C(=O)[C@H]2CNCCO2)C2CC2)c2ccc(CO)cc21 [Example 63] |
| 8.05 | COc1ccc([C@@H](C)N(C(=O)[C@H]2CNCCO2)C2CC2)cc1CCCNC(=O)C(F)(F)F [Example 67] |
| 8.35 | CCC(=O)NCCCc1cc([C@@H](C)N(C(=O)[C@H]2CNCCO2)C2CC2)ccc1OC [Example 68] |
| 9.00 | COC(=O)NCCCn1nc([C@@H](C)N(C(=O)[C@H]2CNCCO2)C2CC2)c2ncc(C)cc21 [Example 70] |

| pIC50 | Structure (SMILES) |
| --- | --- |
| 9.15 | COC(=O)NCCCn1nc([C@@H](C)N(C(=O)[C@H]2CNCCO2)C2CC2)c2ccc(C(F)(F)F)nc21 [Example 72] |
| 8.85 | COCCCn1cc(C(C)C)c2cnc([C@@H](C)N(C(=O)[C@H]3CNCCO3)C3CC3)nc21 [Example 73] |
| 8.34 | COC(=O)NCCCc1nc([C@@H](C)N(C(=O)[C@H]2CNCCO2)C2CC2)ccc1OC [Example 74] |
| 9.52 | COC(=O)NCCCn1cc([C@@H](C)N(C(=O)[C@H]2CNCCO2)C2CC2)c2cc(F)cnc21 [Example 75] |
| 9.22 | COC(=O)NCCCn1nc([C@@H](C)N(C(=O)[C@H]2CNCCO2)C2CC2)c2cccc(F)c21 [Example 76] |
| 9.05 | COCCCCc1cc([C@@H](C)N(C(=O)[C@H]2CNCCO2)C2CC2)cc(OC)n1 [Example 78] |
| 9.05 | CCc1ccnc2c([C@@H](C)N(C(=O)[C@H]3CNCCO3)C3CC3)cn(CCCCOC)c12 [Example 79] |
| 8.24 | COCCCCn1cc([C@@H](C)N(C(=O)[C@H]2CNCCO2)C2CC2)c2nccnc21 [Example 80] |
| 9.40 | COCc1cccc2c([C@@H](C)N(C(=O)[C@H]3CNCCO3)C3CC3)nn(CCCNC(=O)OC)c12 [Example 81] |
| 9.30 | COC(=O)NCCCn1nc([C@@H](C)N(C(=O)[C@H]2CNCCO2)C2CC2)c2ccc(C3CC3)nc21 [Example 82] |
| 8.68 | COCCCn1cc(CCCNC(=O)OC)c2cnc([C@@H](C)N(C(=O)[C@H]3CNCCO3)C3CC3)cc21 [Example 83] |
| 8.77 | COC(=O)NCCCn1cc([C@@H](C)N(C(=O)[C@H]2CNCCO2)C2CC2)c2nccnc21 [Example 84] |
| 9.00 | COC(=O)NCCCc1cc(OC)cc([C@@H](C)N(C(=O)[C@H]2CNCCO2)C2CC2)c1 [Example 85] |
| 8.96 | COCCCCn1cc([C@@H](C)N(C(=O)[C@H]2CNCCO2)C2CC2)c2nccc(CCOC)c21 [Example 86] |
| 8.32 | COC(=O)NCCCc1cc(OC)cc([C@@H](C)N(C(=O)[C@H]2CNCCO2)C2CC2)n1 [Example 87] |
| 9.00 | CCc1ccc2c([C@@H](C)N(C(=O)[C@H]3CNCCO3)C3CC3)nn(CCCNC(=O)OC)c2n1 [Example 89] |
| 9.10 | COC(=O)NCCCn1nc([C@@H](C)N(C(=O)[C@H]2CNCCO2)C2CC2)c2ccc(C(C)C)nc21 [Example 90] |
| 8.72 | COC(=O)NCCCc1cc(F)cc([C@@H](C)N(C(=O)[C@H]2CNCCO2)C2CC2)c1 [Example 92] |
| 8.80 | COCCCCn1cc([C@@H](C)N(C(=O)[C@H]2CNCCO2)C2CC2)c2ncc(C)nc21 [Example 93] |
| 8.14 | COCc1ccc([C@@H](C)N(C(=O)[C@H]2CNCCO2)C2CC2)cc1OCCNC(=O)OC [Example 95] |
